Each structure is given as a SMILES string. Several values for one entry are separate records, joined by “and”; a condition that tells them apart may be missing. Equal entries are not always repeated. Numbers after ± are expanded uncertainties.

Data set [1] in a line: activity coefficient (dimensionless); of the first substance listed, at infinite dilution; xn = mol fraction of the nth substance listed. As to conditions: Liquid, Chromatography, x1 = 0.
For data set [2] the following is noted: 298.15 K; 101.33 kPa; Liquid; Vibrating tube method.

Turning to `C=CCCCCCCCC` [1-decene] + CCCCCCCC[n+]1ccn(C)c1.F[P-](F)(F)(F)(F)F, the activity coefficient in data set [1] (313.15 K) was 16.3 and 16.7; in data set [1] (323.15 K) it was 16.3 and 16.5; in data set [1] (333.15 K) it was 16.3 and 16.4.

Take `C=CCCCCC` [1-heptene] + CCCCCCCC[n+]1ccn(C)c1.F[P-](F)(F)(F)(F)F: the activity coefficient in data set [1] (313.15 K) is 8.2 ± 0.7; in data set [1] (323.15 K), 8.1 and 8.2; in data set [1] (333.15 K), 8 and 8.1.

With `C#CCCCCC` [1-heptyne] + CCCCCCCC[n+]1ccn(C)c1.F[P-](F)(F)(F)(F)F, the activity coefficient was 2.81 and 2.93 in data set [1] (313.15 K); 2.98 and 2.87 in data set [1] (323.15 K); 2.93 and 3.04 in data set [1] (333.15 K).

`C#CCCCC` [1-hexyne] + CCCCCCCC[n+]1ccn(C)c1.F[P-](F)(F)(F)(F)F: the activity coefficient in data set [1] (313.15 K) is 2.24 and 2.33; in data set [1] (323.15 K), 2.38 and 2.3; in data set [1] (333.15 K) it was 2.34 and 2.43.

Take `C=CCCCCCCC` [1-nonene] + CCCCCCCC[n+]1ccn(C)c1.F[P-](F)(F)(F)(F)F: the activity coefficient is 14.2 and 13.5 in data set [1] (313.15 K); 13.3 and 13.9 in data set [1] (323.15 K); 13.5 and 13.3 in data set [1] (333.15 K).

In general, mass density refers to mass per unit of volume. Consider `CCCCCCCC[n+]1ccn(C)c1.F[P-](F)(F)(F)(F)F` [1-octyl-3-methylimidazolium hexafluorophosphate], for which the mass density in data set [2] came to 1238.51 ± 10 kg/m3.

As to `C#CCCCCCC` [1-octyne] + CCCCCCCC[n+]1ccn(C)c1.F[P-](F)(F)(F)(F)F, the activity coefficient in data set [1] (313.15 K) was 3.77 and 3.9; in data set [1] (323.15 K), 3.94 and 3.87; in data set [1] (333.15 K) it was 3.94 and 4.03.

For `C#CCCC` [1-pentyne] + CCCCCCCC[n+]1ccn(C)c1.F[P-](F)(F)(F)(F)F, the activity coefficient is 1.7 and 1.72 in data set [1] (313.15 K); 1.79 and 1.75 in data set [1] (323.15 K); 1.78 and 1.84 in data set [1] (333.15 K).

Turning to `c1ccccc1` [benzene] + CCCCCCCC[n+]1ccn(C)c1.F[P-](F)(F)(F)(F)F, the activity coefficient in data set [1] (313.15 K) was 0.96 and 0.97; in data set [1] (323.15 K) it was 0.99 ± 0.08; in data set [1] (333.15 K) it was 1 and 1.03.

As for `C1CCCCCC1` [cycloheptane] + CCCCCCCC[n+]1ccn(C)c1.F[P-](F)(F)(F)(F)F, the activity coefficient is 8.2 and 8 in data set [1] (313.15 K); 7.74 and 7.97 in data set [1] (323.15 K); 7.63 and 7.75 in data set [1] (333.15 K).

As to `C1CCCCC1` [cyclohexane] + CCCCCCCC[n+]1ccn(C)c1.F[P-](F)(F)(F)(F)F, the activity coefficient in data set [1] (313.15 K) was 6.7 and 6.82; in data set [1] (323.15 K), 6.61 and 6.56; in data set [1] (333.15 K), 6.29 and 6.3.

Turning to `C1CCCCCCC1` [cyclooctane] + CCCCCCCC[n+]1ccn(C)c1.F[P-](F)(F)(F)(F)F, the activity coefficient in data set [1] (313.15 K) was 10.2 and 9.9; in data set [1] (323.15 K) it was 9.5 and 9.9; in data set [1] (333.15 K), 9.4 ± 0.8.

In the case of `C1CCCC1` [cyclopentane] + CCCCCCCC[n+]1ccn(C)c1.F[P-](F)(F)(F)(F)F, the activity coefficient in data set [1] (313.15 K) is 5.02 and 5.06; in data set [1] (323.15 K) it was 4.95 and 4.92; in data set [1] (333.15 K), 4.77 and 4.79.

Turning to `CCCCCCCCCC` [decane] + CCCCCCCC[n+]1ccn(C)c1.F[P-](F)(F)(F)(F)F, the activity coefficient was 31.8 and 31.7 in data set [1] (313.15 K); 30.8 and 30.3 in data set [1] (323.15 K); 28.2 and 29 in data set [1] (333.15 K).

Take `CCO` [ethanol] + CCCCCCCC[n+]1ccn(C)c1.F[P-](F)(F)(F)(F)F: the activity coefficient in data set [1] (313.15 K) is 2.22 and 2.32; in data set [1] (323.15 K) it was 2.05 and 2; in data set [1] (333.15 K) it was 1.79 and 1.82.

As for `CCc1ccccc1` [ethylbenzene] + CCCCCCCC[n+]1ccn(C)c1.F[P-](F)(F)(F)(F)F, the activity coefficient in data set [1] (313.15 K) is 1.95 ± 0.17; in data set [1] (323.15 K), 1.98 ± 0.17; in data set [1] (333.15 K) it was 1.99 and 2.02.

As to `CCCCCCC` [heptane] + CCCCCCCC[n+]1ccn(C)c1.F[P-](F)(F)(F)(F)F, the activity coefficient was 14.1 and 14.3 in data set [1] (313.15 K); 13.6 and 13.8 in data set [1] (323.15 K); 13.2 ± 1.1 in data set [1] (333.15 K).

Consider `C=CCCCC` [hex-1-ene] + CCCCCCCC[n+]1ccn(C)c1.F[P-](F)(F)(F)(F)F, for which the activity coefficient in data set [1] (313.15 K) is 6.2 and 6.5; in data set [1] (323.15 K), 6.29 and 6.15; in data set [1] (333.15 K) it was 6.1 and 6.15.

As for `CCCCCC` [hexane] + CCCCCCCC[n+]1ccn(C)c1.F[P-](F)(F)(F)(F)F, the activity coefficient in data set [1] (313.15 K) is 10.8 and 11; in data set [1] (323.15 K), 10.7 and 10.6; in data set [1] (333.15 K) it was 10.2 and 10.4.

With `CO` [methanol] + CCCCCCCC[n+]1ccn(C)c1.F[P-](F)(F)(F)(F)F, the activity coefficient in data set [1] (313.15 K) was 1.77 and 1.85; in data set [1] (323.15 K) it was 1.65 and 1.61; in data set [1] (333.15 K) it was 1.46 and 1.5.

Consider `C=CCCCCCC` [oct-1-ene] + CCCCCCCC[n+]1ccn(C)c1.F[P-](F)(F)(F)(F)F, for which the activity coefficient was 10.8 and 10.3 in data set [1] (313.15 K); 10.2 and 10.7 in data set [1] (323.15 K); 10.4 and 10.3 in data set [1] (333.15 K).

In the case of `CCCCCCCC` [octane] + CCCCCCCC[n+]1ccn(C)c1.F[P-](F)(F)(F)(F)F, the activity coefficient in data set [1] (313.15 K) is 18.3 and 17.6; in data set [1] (323.15 K) it was 17.1 and 17.9; in data set [1] (333.15 K) it was 17 and 16.9.

On to `CCCCC` [pentane] + CCCCCCCC[n+]1ccn(C)c1.F[P-](F)(F)(F)(F)F, for which the activity coefficient is 8.2 and 8.3 in data set [1] (313.15 K); 8.1 ± 0.7 in data set [1] (323.15 K); 7.8 and 8 in data set [1] (333.15 K).

For `Cc1ccccc1` [toluene] + CCCCCCCC[n+]1ccn(C)c1.F[P-](F)(F)(F)(F)F, the activity coefficient in data set [1] (313.15 K) was 1.31 and 1.36; in data set [1] (323.15 K), 1.37 and 1.35; in data set [1] (333.15 K), 1.37 and 1.41.

For `CCCCCCCCCCC` [undecane] + CCCCCCCC[n+]1ccn(C)c1.F[P-](F)(F)(F)(F)F, the activity coefficient in data set [1] (313.15 K) is 42.1 and 41.3; in data set [1] (323.15 K), 40.1 and 39.6; in data set [1] (333.15 K), 36.5 and 37.
